These results are taken from article PMC5337940, “Sansanmycin natural product analogues as potent and selective anti-mycobacterials that inhibit lipid I biosynthesis” (Nature Communications, 2017).

The test system of one series is Mtb H37Rv. Briefly: Resazurin reduction microplate assay, growth inhibition of Mtb H37Rv. It is filed as cell-based, Mycobacterium tuberculosis. To be noted: for MIC50: Mycobacterium tuberculosis, H37RV. A general note: The colour change of resazurin is a common sign of viable cells or microbes.
The nature of series [1]: in vitro. In kind it is in vitro ADME. To be noted: microsomes; for Average half-life: 0.5 μM; for half-life at 0.5 μM: Average half-life. On the procedure:
The metabolic stability was assessed by incubating each test compound (0.5 μM) in duplicate with human and mouse liver microsomes (XenoTech, Kansas City, KS) at 37 °C and 0.4 mg ml^−1 microsomal protein. The metabolic reaction was initiated by the addition of an NADPH-regenerating system and quenched at various time points over a 60 min incubation period by the addition of acetonitrile containing diazepam as internal standard. Control samples (containing no NADPH) were included and quenched at 2, 30 and 60 min to monitor for potential degradation in the absence of cofactor. Samples were centrifuged and the supernatant analysed by LCMS. Analysis was conducted using a Waters Acquity UPLC coupled to a Waters Xevo G2 QTOF mass spectrometer operated in positive electrospray ionization MS^E mode with a cone voltage of 30 V. Samples (5 μl) were injected onto an Ascentis Express Amide column (50 × 2.1 mm, 2.7 μm) and eluted using a water/acetonitrile (both containing 0.05% formic acid) gradient over 4 min at a flow rate of 0.4 ml min^−1. Degradation rate half-lives and in vitro intrinsic clearance values were determined from the first order degradation profiles.

A further series relates to Mtb H37Ra in THP-1 cells. Briefly: Intracellular assay, Mtb-infected THP-1 macrophages, CFU count. To be noted: read-out: IC50 intracellular anti-mycobacterial activity; THP-1 macrophages infected with Mtb (H37Ra), average of 2 independent experiments.
Another series deals with HEK293 cells. Briefly: Cytotoxicity counter-screen, resazurin reduction microplate assay. In kind it is cell-based. To be noted: Homo sapiens, tested up to 200 μM, read-out: MIC50 (HEK293). On the technique in general: A counterscreen serves to expose hits that act by an unwanted route or on another target.
Series [2] deals with T1, Mtb MurX (Mycobacterium tuberculosis, UniProt P9WMW7). Briefly: Radiochemical (TLC) MurX-MurG coupled inhibition assay in Mtb mc2 6230 membranes. It is filed as biochemical. To be noted: for inhibition at 0.2 µM: 200 nM inhibitor, decrease in lipid II formation.
T1 sequence (P9WMW7 whole entry): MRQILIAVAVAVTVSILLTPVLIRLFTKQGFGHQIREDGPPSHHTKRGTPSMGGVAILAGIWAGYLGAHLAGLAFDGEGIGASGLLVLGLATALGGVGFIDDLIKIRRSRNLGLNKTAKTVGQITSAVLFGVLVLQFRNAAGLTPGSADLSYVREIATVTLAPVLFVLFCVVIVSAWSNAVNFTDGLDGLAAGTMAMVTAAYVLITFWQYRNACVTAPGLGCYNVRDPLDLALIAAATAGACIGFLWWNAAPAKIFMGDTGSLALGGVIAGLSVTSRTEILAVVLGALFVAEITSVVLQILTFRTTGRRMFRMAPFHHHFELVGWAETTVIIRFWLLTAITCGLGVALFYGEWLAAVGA
Series [3] addresses T1, Mtb MurX. Briefly: biochemical.
Series [4] can be described thus: in vitro. In kind it is in vitro ADME. To be noted: plasma. From the text:
Human blood from nonidentifiable volunteer donors was sourced from the Australian Red Cross Blood Service under a supply agreement approved by the Monash Human Research Ethics Committee. Mouse blood was collected in-house under tissue harvesting protocols approved by the Monash Institute of Pharmaceutical Sciences Animal Ethics Committee. Pooled human and Swiss outbred mouse plasma samples were thawed and spiked with test compound solutions prepared in DMSO/acetonitrile/water (20:40:40) to provide a final compound concentration of 1,000 ng ml^−1 and final DMSO and acetonitrile concentrations of 0.2% and 0.4% (v/v), respectively. Plasma was vortex mixed and aliquots (50 μl) were transferred to fresh microcentrifuge tubes and incubated at 37 °C. At various time points over the 6 h incubation period, duplicate plasma samples were removed and immediately snap-frozen in dry ice. All samples were stored frozen at −80 °C until analysis by LC–MS. Samples were processed by protein precipitation using a two-fold excess of acetonitrile followed by centrifugation. Analysis of the supernate was conducted using a Waters (Milford, MA) Acquity UPLC coupled to a Waters Micromass Quattro Premier mass spectrometer operated in positive electrospray ionization mode with multiple reaction monitoring. The cone voltage was 45 V, collision energy was 30, 30 and 40 V for 25, 36 and 37, respectively, and m/z transitions were 782.30>126.06 (25), 826.32>170.16 (36) and 888.39>126.06 (37). Processed samples (3 μl) were injected onto a Supelco Ascentis Express RP Amide column (50 × 2.1 mm, 2.7 μm) and analytes eluted using a water/acetonitrile (each containing 0.05% formic acid) gradient over 4 min with a flow rate was 0.4 ml min^−1. Sample concentrations were quantitated by comparison to a calibration curve prepared in blank human or mouse plasma.

For a further series, the system named is H37Rv. Set-up: method as in Xie et al. 14, 15. To be noted: isolated natural products; ref Xie et al. 14, 15; cited from earlier work.
[5] abbreviates: Mtb H37Rv, read-out: MIC50 against Mtb.
[6] abbreviates: average of two independent experiments, each in triplicate, read-out: MIC50 Mtb H37Rv.

In brackets after ≈: the same amount, converted by molar mass. Read-outs that look alike come from different tables or passages of the source.

In the case of `C[C@@H]([C@H](NC(=O)[C@H](Cc1ccc2ccccc2c1)NC(=O)N[C@@H](Cc1c[nH]c2ccccc12)C(=O)O)C(=O)NC[C@H]1C[C@@H](O)[C@H](n2ccc(=O)[nH]c2=O)O1)N(C)C(=O)CN` [Compound 36], the MIC50 in the series on Mtb H37Rv (setting [5]) turned out to be 0.18 µM (≈ 0.149 µg/mL); in the series on Mtb H37Rv (setting [6]), 0.18 ± 0.02 µM (≈ 0.149 µg/mL). Moreover, the figures for the microsomal CLint at 0.5 μM in “in vitro [1]” (human) and in the series “in vitro [1]” (mouse) were less than 7 µL/min/mg and 10 µL/min/mg, respectively. For the same compound, the Average half-life in “in vitro [1]” (human) and in “in vitro [1]” (mouse) was more than 2.67 h in each case. Further, the half-life at 0.5 μM in the series “in vitro [1]” (human) was more than 4.12 h; in the series “in vitro [1]” (mouse), 2.77 h. Besides, the IC50 in the series on Mtb H37Ra in THP-1 cells is 4330 nM; at Mtb MurX [2], 48 nM; against Mtb MurX [3], 14 nM. Also, the CC50 with HEK293 cells is more than 200000 nM. The compound also came in with an inhibition at 0.2 µM against Mtb MurX [2] of 100%. The half-life at 1000 ng/ml in the series “in vitro [4]” (Swiss outbred, mouse) is more than 7 h; in “in vitro [4]” (human), more than 7 h.
Turning to `C[C@@H]([C@H](NC(=O)[C@H](CC1CCCCC1)NC(=O)N[C@@H](Cc1c[nH]c2ccccc12)C(=O)O)C(=O)NC[C@H]1C[C@@H](O)[C@H](n2ccc(=O)[nH]c2=O)O1)N(C)C(=O)[C@@H](N)Cc1cccc(O)c1` [Compound 37], the MIC50 with Mtb H37Rv (setting [5]) was 0.037 µM (≈ 0.0329 µg/mL); in the series on Mtb H37Rv (setting [6]) it was 0.037 ± 0.06 µM (≈ 0.0329 µg/mL). The microsomal CLint at 0.5 μM in “in vitro [1]” (human) is 10 µL/min/mg; in the series “in vitro [1]” (mouse), 7 µL/min/mg. The Average half-life in the series “in vitro [1]” (human) and in “in vitro [1]” (mouse) was more than 2.67 h each time. For the same compound, the half-life at 0.5 μM was found to be 2.9 h in the series “in vitro [1]” (human) and 3.88 h in “in vitro [1]” (mouse). The figures for the IC50 with Mtb H37Ra in THP-1 cells, at Mtb MurX [2] and at Mtb MurX [3] were 110 nM, 41 nM and 16 nM, respectively. For the same compound, the CC50 with HEK293 cells is more than 200000 nM. On Mtb MurX [2], this compound came in with an inhibition at 0.2 µM of 100%. For the same compound, the half-life at 1000 ng/ml is more than 7 h in the series “in vitro [4]” (Swiss outbred, mouse) and more than 7 h in the series “in vitro [4]” (human).
Consider `C[C@@H]([C@H](NC(=O)[C@H](CC1CCCCC1)NC(=O)N[C@@H](Cc1c[nH]c2ccccc12)C(=O)O)C(=O)NC[C@H]1C[C@@H](O)[C@H](n2ccc(=O)[nH]c2=O)O1)N(C)C(=O)CN` [Compound 25], for which the values for the MIC50 in the series on Mtb H37Rv (setting [5]) and with Mtb H37Rv (setting [6]) were 0.08 µM (≈ 0.0625 µg/mL) and 0.08 ± 0.02 µM (≈ 0.0625 µg/mL), respectively. Also, the microsomal CLint at 0.5 μM in the series “in vitro [1]” (human) and in “in vitro [1]” (mouse) was less than 7 µL/min/mg each time. In addition, the Average half-life in “in vitro [1]” (human) and in “in vitro [1]” (mouse) was more than 2.67 h each time. Also, the half-life at 0.5 μM in the series “in vitro [1]” (human) and in “in vitro [1]” (mouse) was more than 4.12 h throughout. Also, the IC50 in the series on Mtb H37Ra in THP-1 cells was found to be 1570 nM; against Mtb MurX [2], 54 nM; on Mtb MurX [3], 30 nM. Besides, the CC50 with HEK293 cells was more than 200000 nM. At Mtb MurX [2], this compound yielded an inhibition at 0.2 µM of 100%. Moreover, the half-life at 1000 ng/ml in the series “in vitro [4]” (Swiss outbred, mouse) is more than 7 h; in “in vitro [4]” (human), more than 7 h.
On to tunicamycin [reference compound], for which the IC50 at Mtb MurX [3] (read-out: IC50 Mtb MurX, fluorescence assay) is 189 nM.
Consider `CSCC[C@H](NC(=O)N[C@@H](Cc1c[nH]c2ccccc12)C(=O)O)C(=O)N[C@H](C(=O)N/C=C1/C[C@@H](O)[C@H](n2ccc(=O)[nH]c2=O)O1)[C@H](C)N(C)C(=O)[C@@H](N)c1cccc(O)c1` [Compound 1, Sansanmycin A], for which the “MIC (H37Rv)” value in the series on H37Rv was 18.5 µM (≈ 15.7 µg/mL).
For the compound `CC(C)C[C@H](NC(=O)N[C@@H](Cc1c[nH]c2ccccc12)C(=O)O)C(=O)N[C@H](C(=O)N/C=C1/C[C@@H](O)[C@H](n2ccc(=O)[nH]c2=O)O1)[C@H](C)N(C)C(=O)[C@@H](N)c1cccc(O)c1` [Compound 2, Sansanmycin B], the “MIC (H37Rv)” value in the series on H37Rv was 9.5 µM (≈ 7.9 µg/mL).
As to `C[C@@H]([C@H](NC(=O)[C@H](CC[S+](C)[O-])NC(=O)N[C@@H](Cc1c[nH]c2ccccc12)C(=O)O)C(=O)N/C=C1/C[C@@H](O)[C@H](n2ccc(=O)[nH]c2=O)O1)N(C)C(=O)[C@@H](N)c1cccc(O)c1` (stereo partly drawn) [Compound 3, Sansanmycin C], in the series on H37Rv, the “MIC (H37Rv)” value was more than 36.3 µM.
For the compound `CC(C)C[C@H](NC(=O)N[C@@H](Cc1c[nH]c2ccccc12)C(=O)O)C(=O)N[C@H](C(=O)NC[C@H]1C[C@@H](O)[C@H](n2ccc(=O)[nH]c2=O)O1)[C@H](C)N(C)C(=O)[C@@H](N)Cc1ccc2ccccc2c1` [Compound 9], the MIC50 in the series on Mtb H37Rv (setting [6]) was found to be 3 ± 0.7 µM (≈ 2.65 µg/mL). The CC50 in the series on HEK293 cells was more than 200000 nM. For the same compound, 0.2 µM produced 27% inhibition on Mtb MurX [2].
Turning to `C[C@@H]([C@H](NC(=O)[C@H](Cc1c[nH]c2ccccc12)NC(=O)N[C@@H](Cc1c[nH]c2ccccc12)C(=O)O)C(=O)NC[C@H]1C[C@@H](O)[C@H](n2ccc(=O)[nH]c2=O)O1)N(C)C(=O)CN` [Compound 33], in the series on Mtb H37Rv (setting [6]), the MIC50 fell in the range of 0.44 to 0.98 µM (≈ 0.359 to 0.799 µg/mL). In the series with Mtb H37Rv (average of two independent experiments, each in triplicate), the “MIC50 Mtb H37Rv” value came to 0.44 ± 0.06 µM (≈ 0.359 µg/mL). Besides, the CC50 in the series on HEK293 cells is more than 200000 nM. Also, at 0.2 µM the inhibition on Mtb MurX [2] was 52%.
For the compound `CC(C)[C@H](NC(=O)N[C@@H](Cc1c[nH]c2ccccc12)C(=O)O)C(=O)N[C@H](C(=O)NC[C@H]1C[C@@H](O)[C@H](n2ccc(=O)[nH]c2=O)O1)[C@H](C)N(C)C(=O)CN` [Compound 22], in the series on Mtb H37Rv (setting [6]), the MIC50 is 0.88 ± 0.12 µM (≈ 0.64 µg/mL). Moreover, in the series on HEK293 cells, the CC50 was more than 200000 nM. Besides, the inhibition at 0.2 µM against Mtb MurX [2] was found to be 26%.
For the compound `C[C@@H]([C@H](NC(=O)[C@H](CCCCN)NC(=O)N[C@@H](Cc1c[nH]c2ccccc12)C(=O)O)C(=O)NC[C@H]1C[C@@H](O)[C@H](n2ccc(=O)[nH]c2=O)O1)N(C)C(=O)CN` [Compound 28], the MIC50 in the series with Mtb H37Rv (setting [5]) was 0.7 µM (≈ 0.53 µg/mL); with Mtb H37Rv (setting [6]), 0.7 ± 0.1 µM (≈ 0.53 µg/mL). In addition, the CC50 in the series on HEK293 cells was more than 200000 nM. In addition, the inhibition at 0.2 µM against Mtb MurX [2] is 47%.

As usually defined, the MIC50 is the lowest concentration that inhibits either 50% of growth or 50% of the strains tested, depending on the study. As usually defined, the microsomal CLint is the rate of metabolic loss divided by the concentration. Higher therefore signals faster metabolism. One may read the half-life as the time in which the quantity being followed falls by half. High values mean slow decline, low ones rapid decline. As usually defined, the IC50 is the concentration at which inhibition is half-maximal. In general, inhibition refers to the percentage by which the read-out fell short of the control. A low value points to little suppression.
